The text below walks through data of PubChem BioAssay AID1259411 (Chemical Carcinogenesis Research Information System (CCRIS), 2018).

Molecules are shown by their SMILES. Active and inactive are the calls of the source. The rule behind the calls is not given here.

The data set concerns rodent carcinogenicity bioassays, tumor incidence. In words: CCRIS carcinogenicity studies. In outline: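 Archive of carcinogenicity, mutagenicity, tumor promotion and tumor inhibition results drawn from journals, NCI reports and other sources, expert-reviewed; covers 1985-2011 and is no longer updated.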

On to `CN(C)N`, for which the carcinogen call by setting is: (Species: HAMSTER, Strain/Sex: SYRIAN/FEMALE, Route: SUBCUTANEOUS, Dose: 0, 8, 17, 35 MG/KG BW IN 0.9% SALINE 1/WK FOR LIFE (STUDY DURATION: LIFE SPAN), Dose: 0, 8, 17, 35 MG/KG BW IN 0.9% SALINE 1/WK FOR LIFE (STUDY DURATION: LIFE SPAN)) “inactive; negative”; (Species: HAMSTER, Strain/Sex: SYRIAN/MALE, Route: SUBCUTANEOUS, Dose: 0, 8, 17, 35 MG/KG BW IN 0.9% SALINE 1/WK FOR LIFE (STUDY DURATION: LIFE SPAN), Dose: 0, 8, 17, 35 MG/KG BW IN 0.9% SALINE 1/WK FOR LIFE (STUDY DURATION: LIFE SPAN)) “inactive; negative”; (Species: MOUSE, Route: ORAL, Tumor Site: Type of Lesion: LUNG, BLOOD VESSELS, LIVER, KIDNEY, Tumor Site: Type of Lesion: LUNG, BLOOD VESSELS, LIVER, KIDNEY) “active; positive”.
For the molecule `ClCC(Br)CBr` (centres undefined), the carcinogen call reads like this: (Species: MOUSE, Strain/Sex: B6C3F1/FEMALE, Route: GAVAGE, Dose: 0, 110, 209 MG/KG, TWA, Dose: 0, 110, 209 MG/KG, TWA, Tumor Site: Type of Lesion: STOMACH: SQUAMOUS CELL CARCINOMA) “active; positive”; (Species: MOUSE, Strain/Sex: B6C3F1/FEMALE, Route: INHALATION, Dose: 0, 0.6, 3.0 PPM 6 HR/D, 5 D/WK FOR 76-103 WK, Dose: 0, 0.6, 3.0 PPM 6 HR/D, 5 D/WK FOR 76-103 WK, Tumor Site: Type of Lesion: NASAL CAVITY: CARCINOMA (NOS), SQUAMOUS CELL CARCINOMA, SQUAMOUS CELL CARCINOMA OR SQUAMOUS CELL PAPILLOMA, ADENOCARCINO) “active; positive”; (Species: MOUSE, Strain/Sex: B6C3F1/MALE, Route: GAVAGE, Dose: 0, 114, 219 MG/KG, TWA, Dose: 0, 114, 219 MG/KG, TWA, Tumor Site: Type of Lesion: STOMACH: SQUAMOUS CELL CARCINOMA) “active; positive”; (Species: MOUSE, Strain/Sex: B6C3F1/MALE, Route: INHALATION, Dose: 0, 0.6, 3.0 PPM 6 HR/D, 5 D/WK FOR 76 WK, Dose: 0, 0.6, 3.0 PPM 6 HR/D, 5 D/WK FOR 76 WK, Tumor Site: Type of Lesion: NASAL CAVITY: CARCINOMA (NOS), SQUAMOUS CELL CARCINOMA, ADENOMATOUS POLYP (NOS), LUNG: ALVEOLAR/BRONCHIOLAR ADENOMA, ALV) “active; positive”; (Species: RAT, Strain/Sex: F344/FEMALE, Route: INHALATION, Dose: 0, 0.6, 3.0 PPM 6 HR/D, 5 D/WK FOR 84-103 WK, Dose: 0, 0.6, 3.0 PPM 6 HR/D, 5 D/WK FOR 84-103 WK, Tumor Site: Type of Lesion: NASAL CAVITY: ADENOMATOUS POLYP (NOS), ADENOMA (NOS), SQUAMOUS CELL PAPILLOMA, CARCINOMA (NOS), ADENOCARCINOMA (NOS), NA) “active; positive”; (Species: RAT, Strain/Sex: F344/MALE, Route: INHALATION, Dose: 0, 0.6, 3.0 PPM 6 HR/D, 5 D/WK FOR 84-103 WK, Dose: 0, 0.6, 3.0 PPM 6 HR/D, 5 D/WK FOR 84-103 WK, Tumor Site: Type of Lesion: NASAL CAVITY: ADENOMATOUS POLYP (NOS), ADENOMA (NOS), SQUAMOUS CELL PAPILLOMA, SQUAMOUS CELL CARCINOMA, CARCINOMA (NOS)) “active; positive”. Further, the carcinogen call (Species: RAT, Strain/Sex: OSBORNE-MENDEL/FEMALE, Route: GAVAGE, Dose: 0, 15, 29 MG/KG, TWA, Dose: 0, 15, 29 MG/KG, TWA, Tumor Site: Type of Lesion: STOMACH: SQUAMOUS CELL CARCINOMA, SQUAMOUS CELL PAPILLOMA, MAMMARY GLAND: ADENOCARCINOMA) is “active; positive” and the carcinogen call (Species: RAT, Strain/Sex: OSBORNE-MENDEL/MALE, Route: GAVAGE, Dose: 0, 15, 29 MG/KG, TWA, Dose: 0, 15, 29 MG/KG, TWA, Tumor Site: Type of Lesion: STOMACH: SQUAMOUS CELL CARCINOMA, MULTIPLE SITES: HEMANGIOSARCOMA OR HEMANGIOMA) is “active; positive”.
On to `CCN(CC)C(=S)S`, for which the carcinogen call (Species: MOUSE, Strain/Sex: B6C3F1/FEMALE, Route: ORAL, Dose: 0, 500, 4000 PPM IN DIET, Dose: 0, 500, 4000 PPM IN DIET) was “inactive; negative”; the carcinogen call (Species: MOUSE, Strain/Sex: B6C3F1/MALE, Route: ORAL, Dose: 0, 500, 4000 PPM IN DIET, Dose: 0, 500, 4000 PPM IN DIET) was “inactive; negative”; the carcinogen call (Species: RAT, Strain/Sex: F344/FEMALE, Route: ORAL, Dose: 0, 1250, 2000 PPM IN DIET, Dose: 0, 1250, 2000 PPM IN DIET) was “inactive; negative”; the carcinogen call (Species: RAT, Strain/Sex: F344/MALE, Route: ORAL, Dose: 0, 1250, 2000 PPM IN DIET, Dose: 0, 1250, 2000 PPM IN DIET) is “inactive; negative”.
In the case of `CCc1ccccc1`, the carcinogen call by setting is: (Species: MOUSE, Strain/Sex: B6C3F1/FEMALE, Route: INHALATION, Dose: 0, 75, 250, 750 PPM 6 HR/D 5 D/WK FOR 103 WK (STUDY DURATION: 104 WK), Dose: 0, 75, 250, 750 PPM 6 HR/D 5 D/WK FOR 103 WK (STUDY DURATION: 104 WK), Tumor Site: Type of Lesion: LIVER: HEPATOCELLULAR ADENOMA, HEPATOCELLULAR ADENOMA OR CARCINOMA) “active; positive”; (Species: MOUSE, Strain/Sex: B6C3F1/MALE, Route: INHALATION, Dose: 0, 75, 250, 750 PPM 6 HR/D 5 D/WK FOR 103 WK (STUDY DURATION: 104 WK), Dose: 0, 75, 250, 750 PPM 6 HR/D 5 D/WK FOR 103 WK (STUDY DURATION: 104 WK), Tumor Site: Type of Lesion: LUNG: ALVEOLAR/BRONCHIOLAR ADENOMA, ALVEOLAR/BRONCHIOLAR ADENOMA OR CARCINOMA) “active; positive”; (Species: RAT, Strain/Sex: F344/FEMALE, Route: INHALATION, Dose: 0, 75, 250, 750 PPM 6 HR/D 5 D/WK FOR 104 WK (STUDY DURATION: 105 WK), Dose: 0, 75, 250, 750 PPM 6 HR/D 5 D/WK FOR 104 WK (STUDY DURATION: 105 WK), Tumor Site: Type of Lesion: KIDNEY (RENAL TUBULE): ADENOMA) “active; positive”; (Species: RAT, Strain/Sex: F344/MALE, Route: INHALATION, Dose: 0, 75, 250, 750 PPM 6 HR/D 5 D/WK FOR 104 WK (STUDY DURATION: 105 WK), Dose: 0, 75, 250, 750 PPM 6 HR/D 5 D/WK FOR 104 WK (STUDY DURATION: 105 WK), Tumor Site: Type of Lesion: KIDNEY (RENAL TUBULE): ADENOMA) “active; positive”; (Species: RAT, Strain/Sex: STRAIN-CD/FEMALE, Route: INTRAGASTRIC, Dose: 0, 500 MG/KG IN OLIVE OIL 1/D 4-5 D/WK FOR 104 WK (STUDY DURATION: 104 WK)) “inactive; negative”; (Species: RAT, Strain/Sex: STRAIN-CD/MALE, Route: INTRAGASTRIC, Dose: 0, 500 MG/KG IN OLIVE OIL 1/D 4-5 D/WK FOR 104 WK (STUDY DURATION: 104 WK)) “inactive; negative”.
For the molecule `O=[N+]([O-])c1ccc(-c2cscn2)o1`, the carcinogen call (Species: RAT, Strain/Sex: SPRAGUE-DAWLEY/FEMALE, Route: ORAL, Dose: 0, 1540 PPM IN DIET FOR 46 WK (TOTAL DOSE: 42 MMOL/RAT) (STUDY DURATION: 68 WK), Tumor Site: Type of Lesion: MAMMARY GLAND: FIBROADENOMA, FORESTOMACH: SQUAMOUS CELL CARCINOMA) is “active; positive”.
Take `NNC(=O)c1ccccc1`: the carcinogen call is “active; positive” (Species: MOUSE, Strain/Sex: SWISS/FEMALE, Route: ORAL, Dose: 0, 0.1% SOLUTION IN DRINKING WATER STARTING AT 6 WK OF AGE AND CONTINUED FOR LIFE FOR AN AVERAGE DAILY INTAKE OF 0, 0.57, Dose: 0, 0.1% SOLUTION IN DRINKING WATER STARTING AT 6 WK OF AGE AND CONTINUED FOR LIFE FOR AN AVERAGE DAILY INTAKE OF 0, 0.57, Tumor Site: Type of Lesion: LUNG: ADENOMA, LUNG: ADENOMA AND ADENOCARCINOMA) and “active; positive” (Species: MOUSE, Strain/Sex: SWISS/MALE, Route: ORAL, Dose: 0, 0.01% SOLUTION IN DRINKING WATER STARTING AT 6 WK OF AGE AND CONTINUED FOR LIFE FOR AN AVERAGE DAILY INTAKE OF 0, 0.8, Dose: 0, 0.01% SOLUTION IN DRINKING WATER STARTING AT 6 WK OF AGE AND CONTINUED FOR LIFE FOR AN AVERAGE DAILY INTAKE OF 0, 0.8, Tumor Site: Type of Lesion: LUNG: ADENOMA, LUNG: ADENOMA AND ADENOCARCINOMA).
